Several values for one entry are separate records, joined by “and”; a condition that tells them apart may be missing. Equal entries are not always repeated.
Tests used:
human NK(1) receptor = human NK(1) receptor (Homo sapiens, UniProt P25103); settings: cited from earlier work
humans = settings: oral and/or intravenous 10, 25, 50, and 100 mg/kg body weight; cited from earlier work
[1] = 400 mg daily tablets; cited from earlier work
[2] = cited from earlier work
[3] = test system: isolated guinea-pig mesenteric artery; experiment: Isolated guinea-pig mesenteric artery relaxation (pressure myograph, videomicroscopy); settings: for relaxation of isolated intact mesenteric artery: AVP-constricted, 0.001 to 1 mM luminal or abluminal; for abluminal versus luminal relaxation: intact artery, adenosine: at 10 μM and 100 μM
Method: Male guinea pigs (250-300 g) were anesthetised and placed in a cradle and the abdomen opened. Second order mesenteric artery branches were isolated and mounted in a pressure myograph (see FIG. 4) under constant pressure of 60 mmHg and perfusion (luminal flow) of 100 uL/min with Krebs-Henseleit buffer (37° C.). Artery diameter was continuously measured using videomicroscopy (see FIG. 4). For the relaxation/vasodilation experiments arteries were equilibrated and then constricted with 10^−8 M arginine vasopressin (AVP). Adenosine, lidocaine or adenosine-lidocaine together were administered 2) luminally and 2) abluminally and concentration curves were obtained. Stock solutions of adenosine and lidocaine alone or adenosine-lidocaine combined were made in deionized water to 20 mM. A range of volumes were pipetted to provide contact concentrations with the vessel lumen or outer wall that ranged from 0.001 to 1 mM. At the end of experiments, arteries were dilated using calcium-free solution to obtain 100% relaxation. A number of arteries were denuded by introducing 5 ml air into the lumen with flow rate 1000 μl/min. The air outflow was then clamped until the intraluminal pressure reached 70 mmHg, flow rate was reduced to 2 μl/min and the vessel remained pressurized for 10 minutes

Chain of human NK(1) receptor (P25103 whole entry): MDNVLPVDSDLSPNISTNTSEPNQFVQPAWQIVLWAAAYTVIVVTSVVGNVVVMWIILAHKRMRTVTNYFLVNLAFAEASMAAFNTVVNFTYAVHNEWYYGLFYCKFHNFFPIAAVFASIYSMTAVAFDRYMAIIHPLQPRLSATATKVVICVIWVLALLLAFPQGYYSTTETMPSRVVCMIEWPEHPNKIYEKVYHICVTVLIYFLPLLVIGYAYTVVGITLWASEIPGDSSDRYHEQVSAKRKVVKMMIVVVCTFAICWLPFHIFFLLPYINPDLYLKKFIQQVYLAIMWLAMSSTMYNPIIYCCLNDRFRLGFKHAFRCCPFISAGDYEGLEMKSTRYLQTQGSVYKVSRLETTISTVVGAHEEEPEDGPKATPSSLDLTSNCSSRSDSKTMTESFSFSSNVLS

Structure (SMILES) | relaxation of isolated intact mesenteric artery [3] | relaxation of mesenteric artery ([3]; endothelium absent (denuded)) | relaxation of mesenteric artery ([3]; endothelium present) | abluminal versus luminal relaxation [3] | other results
Cc1cccc(C)c1NC(=O)C[C@H]1CCN(C(=O)c2cc(C(F)(F)F)cc(C(F)(F)F)c2)[C@@H](Cc2ccccc2)C1.O=C(O)C[C@H](O)C(=O)O (relative stereo) [R116301, (2R-trans)-4-[1-[3,5-bis(trifluoromethyi)benzoyl]-2-(phenylmethyl)-4-piperidinyl]-N-(2,6-dimethylphenyl)-1-acetamide (S)-Hydroxybutanedioate] |  |  |  |  | selectivity toward NK(2) and NK(3) receptors (human NK(1) receptor): over 200 fold; Ki (human NK(1) receptor; human NK(1) receptor): 0.45 nM
NC(=O)c1ncn([C@@H]2O[C@H](CO)[C@@H](O)[C@H]2O)c1N [Acadesine, 5-amino-4-imidazole carboxamide ribonucleoside] |  |  |  |  | safety in humans (humans): safe in humans
OCCN(CCO)c1nc(N2CCCCC2)c2nc(N(CCO)CCO)nc(N3CCCCC3)c2n1 [Dipyridamole] |  |  |  |  | plasma level [1]: about 0.4 μg/ml and 0.8 μM
Nc1ncnc2c1ncn2[C@@H]1O[C@H](CO)[C@@H](O)[C@H]1O [adenosine] | increased relaxation | relaxed the mesenteric artery in a dose dependent manner | relaxed the mesenteric artery in a dose dependent manner | significantly more relaxation | half life in the blood [2]: about 10 seconds
CCN(CC)CC(=O)Nc1c(C)cccc1C [lidocaine] | failed to produce relaxation | relaxed the artery | did not significantly change mesenteric artery diameter | no significant difference | 

Source: patent US20160158280A1, “A METHOD FOR ORGAN ARREST, PROTECTION AND PRESERVATION AND REDUCING TISSUE INJURY” (priority 2013, published 2016)
